ChEMBL document CHEMBL3880428, “Sulfonamide derivative having PGD2 receptor antagonistic activity” (2012)

Legend:
Rattus norvegicus [1] = assay: Antiallergic activity in Brown Norway rat model of ovalbumin-induced asthma assessed as inhibition of mucus secretion in airway lavage fluid at 10 mg/kg, po qd for 3 consecutive days administered 1 hr prior to fourth exposure of antigen by ELISA relative to control; format: functional
Rattus norvegicus [2] = assay: (§1) Antiallergic activity in Brown Norway rat model of ovalbumin-induced asthma assessed as inhibition of airway hyperresponsiveness at 10 mg/kg, po qd for 3 consecutive days administered 1 hr prior to fourth exposure of antigen relative to control; format: functional
Rattus norvegicus [3] = assay: as §1, with “infiltration of inflammatory cells in bronchoalveoli” for “airway hyperresponsiveness”, “antigen by hemocytometry based light microscopy” for “antigen”; format: functional
HEK293 [4] = assay: Selectivity ratio of IC50 for PGD2 receptor in human platelets to IC50 for human EP3 receptor expressed in HEK293 cells by cAMP accumulation assay; format: cell-based
HEK293 [5] = assay: Selectivity ratio of IC50 for PGD2 receptor in human platelets to IC50 for human EP2 receptor expressed in HEK293 cells by cAMP accumulation assay; format: cell-based
HEK293 [6] = assay: Selectivity ratio of IC50 for PGD2 receptor in human platelets to IC50 for human IP receptor expressed in HEK293 cells by cAMP accumulation assay; format: cell-based
HEK293 [7] = assay: Selectivity ratio of IC50 for PGD2 receptor in human platelets to IC50 for human EP1 receptor expressed in HEK293 cells by cAMP accumulation assay; format: cell-based
HEK293 [8] = assay: Selectivity ratio of IC50 for PGD2 receptor in human platelets to IC50 for human EP4 receptor expressed in HEK293 cells by cAMP accumulation assay; format: cell-based
HEK293 [9] = assay: Selectivity ratio of IC50 for PGD2 receptor in human platelets to IC50 for human TP receptor expressed in HEK293 cells by cAMP accumulation assay; format: cell-based
HEK293 [10] = assay: Selectivity ratio of IC50 for PGD2 receptor in human platelets to IC50 for human FP receptor expressed in HEK293 cells by cAMP accumulation assay; format: cell-based

SMILES | inhibition in vivo at 10 mg/kg (Rattus norvegicus [1]) | inhibition in vivo at 10 mg/kg (Rattus norvegicus [2]) | inhibition in vivo at 10 mg/kg (Rattus norvegicus [3]) | Ratio IC50 (HEK293 [4]) | Ratio IC50 (HEK293 [5]) | Ratio IC50 (HEK293 [6]) | Ratio IC50 (HEK293 [7]) | Ratio IC50 (HEK293 [8]) | Ratio IC50 (HEK293 [9]) | Ratio IC50 (HEK293 [10])
CC(C)Oc1ccc(S(=O)(=O)N2CCN(c3ccccc3OCC(=O)O)CC2)cc1 | 79% | 59% | 76% | – | – | – | – | – | – | –
CC(C)Oc1ccc(S(=O)(=O)N2CCN(c3cccc(OCC(=O)O)c3)CC2)cc1 | 78% | 50% | 78% | – | – | – | – | – | – | –
CC(C)Oc1ccc(S(=O)(=O)N2CCN(c3cc(OCC(=O)O)cc(-c4ccccc4)c3)CC2)cc1 | – | – | – | > 20 | > 20 | > 20 | > 20 | > 20 | > 20 | > 20
CC(C)Oc1ccc(S(=O)(=O)N2CCN(c3ccc(C(=O)Nc4cc(C5CC5)n[nH]4)c(OCC(=O)O)c3)CC2)cc1 | – | – | – | > 20 | > 20 | > 20 | > 20 | > 20 | > 20 | > 20
CC(C)Oc1ccc(S(=O)(=O)N2CCN(c3ccc(C(=O)NCc4cccs4)c(OCC(=O)O)c3)CC2)cc1 | – | – | – | > 20 | > 20 | > 20 | > 20 | > 20 | > 20 | > 20
CC(C)OC(=O)Nc1ccc(N2CCN(S(=O)(=O)c3ccc(OC(C)C)cc3)CC2)cc1OCC(=O)O | – | – | – | > 20 | > 20 | > 20 | > 20 | > 20 | > 20 | > 20
CC(C)Oc1ccc(S(=O)(=O)N2CCN(c3cc(F)c(F)c(OCC(=O)O)c3)CC2)cc1 | – | – | – | > 20 | > 20 | > 20 | > 20 | > 20 | > 20 | > 20
CC(C)Oc1ccc(S(=O)(=O)N2CCN(c3ccc(NC(=O)c4cccnc4)c(OCC(=O)O)c3)CC2)cc1 | – | – | – | > 20 | > 20 | > 20 | > 20 | > 20 | > 20 | > 20
CC(C)Oc1ccc(S(=O)(=O)N2CCN(c3ccc(C(=O)NCc4ccccn4)c(OCC(=O)O)c3)CC2)cc1 | – | – | – | > 20 | > 20 | > 20 | > 20 | > 20 | > 20 | > 20
CC(C)Oc1ccc(S(=O)(=O)N2CCN(c3ccc(Cl)c(OCC(=O)O)c3)C(C)C2)cc1 (configuration not stated) | – | – | – | > 20 | > 20 | > 20 | > 20 | > 20 | > 20 | > 20
